Experimental data published in PubChem BioAssay (NCI).
Where “and” joins values, the source holds several entries; their conditions need not be identical. Equal values may be shown once.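 96-well plates; 48 h exposure; 5 concentrations. Endpoints by linear interpolation between flanking doses. Not reached: highest tested concentration assigned. GI50 is the concentration that inhibits growth by half. At the TGI there is no net growth.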

Experiments:
Experiment in all cases: growth of human tumour cells (NCI), 48 h
SK-MEL-5 melanoma = system: SK-MEL-5 melanoma
HS 578T breast = system: HS 578T breast
SNB-75 CNS = system: SNB-75 CNS
NCI-H460 lung = system: NCI-H460 lung
OVCAR-4 ovarian = system: OVCAR-4 ovarian
HOP-62 NSCLC = system: HOP-62 NSCLC
PC-3 prostate = system: PC-3 prostate
EKVX NSCLC = system: EKVX NSCLC
HL-60(TB) leukemia = system: HL-60(TB) leukemia
K-562 leukemia = system: K-562 leukemia

Row | Structure (SMILES) | GI50 (SK-MEL-5 melanoma) | TGI (SK-MEL-5 melanoma) | GI50 (HS 578T breast) | TGI (HS 578T breast) | GI50 (SNB-75 CNS) | TGI (SNB-75 CNS) | GI50 (NCI-H460 lung) | TGI (NCI-H460 lung) | GI50 (OVCAR-4 ovarian) | TGI (OVCAR-4 ovarian) | GI50 (HOP-62 NSCLC) | TGI (HOP-62 NSCLC) | GI50 (PC-3 prostate) | TGI (PC-3 prostate) | GI50 (EKVX NSCLC) | TGI (EKVX NSCLC) | GI50 (HL-60(TB) leukemia) | TGI (HL-60(TB) leukemia) | GI50 (K-562 leukemia) | TGI (K-562 leukemia)
1 | CCOC(=O)c1c(NC(=O)c2ccc(C(C)C)cc2)sc2c(CN(C)C)c(O)ccc12 | 1.73 µM | 3.11 µM | 2.01 µM | 4.37 µM | 1.47 µM | 3.39 µM | 1.88 µM | 3.6 µM | 3.7 µM | 13.3 µM | 2.2 µM | 5.89 µM | 2.18 µM | 5.71 µM | 2.78 µM | 9.09 µM | 1.77 µM | 4.2 µM | 0.535 µM | 3.28 µM
2 | COc1ccc(C2SC(N)=Nc3c2c(C)nn3C(=O)c2ccc(Cl)cc2)cc1OC (configuration not stated) | – | > 10 µM | – | > 10 µM | – | > 10 µM | – | > 10 µM | – | > 10 µM | – | > 10 µM | – | > 10 µM | – | > 10 µM | – | > 10 µM | – | > 10 µM
3 | CC(CO)[C@H]1OC(=O)C=C2[C@@]13O[C@@H]3[C@H]1OC(=O)[C@@]3(C)[C@H]4O[C@H]4C[C@@]2(C)[C@@H]13 (some centres not stated) | – | > 37.5 µM | – | 12.6 µM | – | 6.05 µM | – | > 24.4 µM | – | > 24.3 µM | – | > 100 µM | – | 23.1 µM | – | 18.3 µM | – | – | – | > 100 µM
4 | CN1CCCN(CCNc2nccc(-c3c(-c4cccc(O)c4)nc4sccn34)n2)S1(=O)=O | 1.17 µM and 1.23 µM | 11.2 µM and 13.8 µM | 7.08 µM and 3.04 µM | 75 µM and 26 µM | 1.47 µM and 2.19 µM | 75 µM and > 100 µM | 4.41 µM and 4.72 µM | 75 µM and > 75.9 µM | 6.72 µM and 8.49 µM | 52.2 µM and > 100 µM | 30.6 µM and 30.9 µM | 75 µM and > 100 µM | 16.3 µM and 14.6 µM | 75 µM and > 100 µM | 31.1 µM and 30.3 µM | 75 µM and > 100 µM | 14.1 µM and 11.3 µM | 38.3 µM and 32 µM | 12.9 µM and 5.9 µM | 75 µM and > 100 µM
5 | CCN(CC)c1ccc(NC(=S)NN(C)C)cc1 | – | > 10 µM | – | > 10 µM | – | > 10 µM | – | > 10 µM | – | > 10 µM | – | > 10 µM | – | > 10 µM | – | > 10 µM | – | > 10 µM | – | > 10 µM
6 | Cc1ccc(C(=O)/C(=C/c2ccc([N+](=O)[O-])cc2)S(=O)Cc2ccccc2)cc1 (configuration not stated) | 1.6 µM | 2.99 µM | 2.58 µM | 8.87 µM | 1.27 µM | 2.73 µM | 1.83 µM | 4.92 µM | 1.35 µM | 2.78 µM | 2.02 µM | 4.46 µM | 1.35 µM | 2.95 µM | 1.6 µM | 3.13 µM | 1.59 µM | 5.81 µM | 0.623 µM | 12.4 µM
7 | Fc1cccc(COc2ccc(Nc3ncnc4sc(-c5ccco5)cc34)cc2Cl)c1 | > 25 µM | > 25 µM | > 25 µM | > 25 µM | > 25 µM | > 25 µM | > 25 µM | > 25 µM | > 25 µM | > 25 µM | > 25 µM | > 25 µM | > 25 µM | > 25 µM | > 25 µM | > 25 µM | > 25 µM | > 25 µM | > 25 µM | > 25 µM
8 | CC(C)n1c(/C=C/[C@@H](O)C[C@@H](O)CC(=O)O)c(-c2ccc(F)cc2)c2ccccc21 | 3.94 µM and 4.9 µM | 35.4 µM and 27 µM | 4.29 µM and 4.73 µM | > 100 µM | 1.43 µM and 0.859 µM | > 100 µM | 3.91 µM and 4.98 µM | > 100 µM | 10.4 µM and 12.9 µM | > 100 µM | 11.4 µM and 13 µM | > 100 µM | 0.371 µM and 0.65 µM | > 100 µM | 16.8 µM | > 100 µM | 14.5 µM and 10.9 µM | 55.2 µM and > 100 µM | 5.94 µM and 6.56 µM | > 100 µM
9 | Cc1nc(SCC(N)=O)c2sc(=S)n(-c3ccccc3)c2n1 | – | > 10 µM | – | > 10 µM | – | > 10 µM | – | > 10 µM | – | > 10 µM | – | > 10 µM | – | > 10 µM | – | > 10 µM | – | > 10 µM | – | > 10 µM
10 | CCOc1ccc(NCC2CC/C(=C\C=C\c3ccccc3)C2=O)cc1 (configuration not stated) | – | 30.7 µM | – | 65.2 µM | – | 59.9 µM | – | > 80.8 µM | – | 73.9 µM | – | > 62 µM | – | 49.8 µM | – | > 86.2 µM | – | 47.8 µM | – | > 100 µM
11 | C[C@]12CC[C@@H]3c4ccc(O)c([N+](=O)[O-])c4CC[C@H]3[C@@H]1CC[C@@H]2NS(=O)(=O)c1ccc(C(F)(F)F)cc1 | 1.72 µM | 3.28 µM | 2.14 µM | 6.56 µM | 1.43 µM | 5.73 µM | 2.11 µM | 4.83 µM | 2.44 µM | 8.88 µM | 1.83 µM | 3.58 µM | 1.65 µM | 4 µM | – | – | – | – | 2.02 µM | 5.84 µM
12 | O=C(O)c1cc[c]([Hg][S]c2ncnc3nc[nH]c23)cc1 | 14.1 µM | 36.4 µM | 1.5 µM | 6.06 µM | 1.45 µM | 19.4 µM | 13.1 µM | 28.5 µM | 10.3 µM | 28.9 µM | 10.7 µM | 26.1 µM | 8.37 µM | 23.5 µM | 19.2 µM | 34.9 µM | 0.4 µM | 13.4 µM | 1.7 µM | 15.7 µM
13 | COc1cc(-c2csc(NC(=O)c3cc(C(F)(F)F)cc(C(F)(F)F)c3)n2)cc(OC)c1OC | 1.47 µM | 3.11 µM | 3.14 µM | > 100 µM | 2.83 µM | > 100 µM | 2.97 µM | > 100 µM | 2.86 µM | > 100 µM | 3.03 µM | > 100 µM | 1.73 µM | 7.35 µM | 2.47 µM | > 100 µM | 2.07 µM | 6.18 µM | 2.75 µM | > 100 µM
14 | Clc1ccccc1NN(Cc1ccccn1)c1ccccc1Cl | – | 27.9 µM | – | 63.9 µM | – | 41.7 µM | – | – | – | 37.2 µM | – | 34.3 µM | – | > 100 µM | – | 52.5 µM | – | 44 µM | – | 68.7 µM
15 | CC1(C)N=C(N)N=C(N)N1c1ccc(CCc2ccccc2)c(Cl)c1 | 0.124 µM | 1.33 µM | 3.7 µM | 27.2 µM | 0.517 µM | 12.7 µM | 0.042 µM | 11.6 µM | 0.52 µM | 13.1 µM | 0.268 µM | 12.4 µM | 0.0916 µM | 12.1 µM | – | – | 0.0473 µM | 2.72 µM | 0.0323 µM | 14.6 µM
